pIC50: −log10 of the molar value. Counter-ions that a name gives are not always drawn. Like-named read-outs stand apart in the source and are kept apart here.
Molecular target: GCN2 (Homo sapiens, UniProt Q9P2K8)
Experiment: GCN2 enzymatic endpoint assay: phosphorylation of GFP-eIF2α measured by TR-FRET (Lanthascreen)
Type: biochemical
Method in brief: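 Reaction started with 2 μM ATP and 80 nM GFP-labelled eIF2α substrate at room temperature, stopped with EDTA after 90 minutes. Phospho-eIF2α detected by terbium-labelled antibody TR-FRET; activity taken as 520 nm (fluorescein) to 495 nm (terbium) emission ratio.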

[1] = GCN2 biochemical IC50, 4 nM GCN2, 2 μM ATP, 80 nM GFP-eIF2α, 90 min RT, read-out: GCN2 activity
[2] = tested as described in Example 77, compound and/or hydrochloride, dihydrochloride or trifluoroacetic acid salt, read-out: IC 50 Activity

GCN2, sequence (Q9P2K8 whole entry): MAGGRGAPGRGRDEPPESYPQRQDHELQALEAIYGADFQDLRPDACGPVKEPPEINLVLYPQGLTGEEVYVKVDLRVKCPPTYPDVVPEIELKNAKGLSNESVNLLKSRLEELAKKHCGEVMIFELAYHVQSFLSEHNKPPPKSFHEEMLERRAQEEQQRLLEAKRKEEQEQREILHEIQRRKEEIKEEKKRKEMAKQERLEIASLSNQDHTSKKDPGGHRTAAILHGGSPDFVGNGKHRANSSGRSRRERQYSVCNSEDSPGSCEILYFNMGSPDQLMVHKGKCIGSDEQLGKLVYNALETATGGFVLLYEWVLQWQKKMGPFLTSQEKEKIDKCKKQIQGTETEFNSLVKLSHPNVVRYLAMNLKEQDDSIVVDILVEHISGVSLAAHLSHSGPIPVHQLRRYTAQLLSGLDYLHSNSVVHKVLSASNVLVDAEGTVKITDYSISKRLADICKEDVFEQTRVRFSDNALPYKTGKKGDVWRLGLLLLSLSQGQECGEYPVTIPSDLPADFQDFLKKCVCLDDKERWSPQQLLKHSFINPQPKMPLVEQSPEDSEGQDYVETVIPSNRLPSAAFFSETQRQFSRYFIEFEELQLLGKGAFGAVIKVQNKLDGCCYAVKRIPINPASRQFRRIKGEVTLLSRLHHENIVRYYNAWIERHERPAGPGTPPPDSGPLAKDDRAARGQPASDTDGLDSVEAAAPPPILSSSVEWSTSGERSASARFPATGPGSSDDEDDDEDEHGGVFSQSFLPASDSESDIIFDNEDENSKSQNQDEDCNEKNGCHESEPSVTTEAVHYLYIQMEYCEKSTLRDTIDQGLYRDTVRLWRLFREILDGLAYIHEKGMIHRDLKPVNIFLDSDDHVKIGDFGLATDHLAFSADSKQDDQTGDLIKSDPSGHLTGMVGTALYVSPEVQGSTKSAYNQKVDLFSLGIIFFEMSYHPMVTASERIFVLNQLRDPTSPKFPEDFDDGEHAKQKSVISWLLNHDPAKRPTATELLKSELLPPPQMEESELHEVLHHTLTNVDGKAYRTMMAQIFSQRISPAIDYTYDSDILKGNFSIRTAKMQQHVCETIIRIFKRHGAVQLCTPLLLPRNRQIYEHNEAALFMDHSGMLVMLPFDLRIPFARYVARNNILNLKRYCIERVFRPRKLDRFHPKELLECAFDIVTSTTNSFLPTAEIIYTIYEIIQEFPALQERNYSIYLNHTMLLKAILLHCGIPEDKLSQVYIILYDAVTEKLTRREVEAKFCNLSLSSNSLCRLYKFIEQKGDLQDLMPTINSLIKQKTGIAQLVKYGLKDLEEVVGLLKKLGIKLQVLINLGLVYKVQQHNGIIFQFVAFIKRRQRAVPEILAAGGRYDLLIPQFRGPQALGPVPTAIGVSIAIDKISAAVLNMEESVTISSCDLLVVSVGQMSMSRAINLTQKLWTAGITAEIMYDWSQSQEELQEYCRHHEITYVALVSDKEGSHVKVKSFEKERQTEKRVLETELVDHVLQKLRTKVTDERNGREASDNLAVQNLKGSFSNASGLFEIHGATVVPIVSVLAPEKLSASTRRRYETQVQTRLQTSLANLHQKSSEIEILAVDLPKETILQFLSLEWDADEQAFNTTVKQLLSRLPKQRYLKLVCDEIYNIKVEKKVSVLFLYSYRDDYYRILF

**Q.** How did the pIC50 [1] turn out when CNC(=O)C1(C)CC[C@@H](Nc2ncc3c(Br)nn(-c4ccc(-c5cccnc5)c(C#N)c4)c3n2)C1 (stereo partly drawn) [Example 44, (3R)-3-((3-bromo-1-(3-cyano-4-(pyridin-3-yl)phenyl)-1H-pyrazolo[3,4-d]pyrimidin-6-yl)amino)-N,1-dimethylcyclopentane-1-carboxamide; 2,2,2-trifluoroacetic acid] was run?
**A.** 6.70 to 7.60

**Q.** How did the pIC50 [2] turn out when O=C([C@@H]1CC[C@@H](Nc2ncc3c(Br)nn(-c4cc(F)c5ncccc5c4)c3n2)C1)N1CCC2(CNC2)C(F)(F)C1 [[(1R,3R)-3-[[3-bromo-1-(8-fluoro-6-quinolyl)pyrazolo[3,4-d]pyrimidin-6-yl]amino]cyclo-pentyl]-(5,5-difluoro-2,7-diazaspiro[3.5]nonan-7-yl)methanone] was run?
**A.** > 7.60

**Q.** With O=C(Nc1cnn(C2CC2)c1)[C@@H]1CC[C@@H](Nc2ncc3c(Br)nn(-c4cc(F)c5ncccc5c4)c3n2)C1 [(1R,3R)-3-((3-bromo-1-(8-fluoroquinolin-6-yl)-1H-pyrazolo[3,4-d]pyrimidin-6-yl)amino)-N-(1-cyclopropyl-1H-pyrazol-4-yl)cyclopentane-1-carboxamide] as the compound, how does the pIC50 [2] read?
**A.** 6.30 to 6.70

**Q.** O=C1NCC[C@]12CC[C@@H](Nc1ncc3c(Br)nn(-c4cc(F)c5ncccc5c4)c3n1)C2 [Example 48, (5S,7R)-7-((3-bromo-1-(8-fluoroquinolin-6-yl)-1H-pyrazolo[3,4-d]pyrimidin-6-yl)amino)-2-azaspiro[4.4]nonan-1-one hydrochloride] was tested. Which pIC50 [1] did it give?
**A.** 6.70 to 7.60

**Q.** CNC(=O)[C@]1(C)CC[C@@H](Nc2ncc3c(Br)nn(-c4ccc(-c5nnc(C(C)(C)O)s5)cc4)c3n2)C1 was tested. Which pIC50 [2] did it give?
**A.** 6.70 to 7.60

From patent US11046699B2, “Pyrazolo-pyrimidin-amino-cycloalkyl compounds and their therapeutic uses” (RAPT THERAPEUTICS, INC., priority 2018, dated 2021)
